15 compounds from patent US11370770B2, “3-arylindazoles as selective MEK4 inhibitors” (priority 2019, dated 2022) can be followed below.

Assay [1] has as its target MEK1 (Homo sapiens (Human), UniProt Q02750). Description: MEK family profiling ADP-Glo, MEK1. The note with it: Erk2 substrate; 0.6 μM ATP; read-out: IC50 MEK isoform 1. In kind it is biochemical. Background: ADP-Glo turns the ADP formed in a reaction into a luminescent signal.
Assay [2] deals with MEK2 (Homo sapiens (Human), UniProt P36507). Description: MEK family profiling ADP-Glo, MEK2. The class given is biochemical. The settings on record: Erk2 substrate; 0.6 μM ATP; read-out: IC50 MEK isoform 2.
Assay [3] deals with MEK3 (Homo sapiens (Human), UniProt P46734). Description: MEK family profiling ADP-Glo, MEK3. In kind it is biochemical. The note with it: p38α substrate; 0.6 μM ATP; read-out: IC50 MEK isoform 3.
Assay [4] deals with MEK5 (Homo sapiens (Human), UniProt Q13163). The assay can be described thus: MEK family profiling ADP-Glo, MEK5. The settings on record: Erk5 substrate; 0.6 μM ATP; read-out: IC50 MEK isoform 5. In kind it is biochemical.
Assay [5] has as its target MEK6 (Homo sapiens (Human), UniProt P52564). The assay can be described thus: MEK family profiling ADP-Glo, MEK6. In kind it is biochemical. The note with it: p38α substrate; 0.6 μM ATP; read-out: IC50 MEK isoform 6.
Assay [6] has as its system PC3M cells. The assay can be described thus: Scratch wound assay. In kind it is cell-based.
The target in assay [7] is human MEK4 (Homo sapiens (Human), UniProt P45985). The assay can be described thus: MEK4 ADP-Glo kinase activity assay (p38α substrate). The class given is biochemical. The note with it: for IC50: p38α substrate, value with 95% confidence interval in brackets, read-out: MEK4-p38, IC50, μM [95% Cl].

A value given as a limit tells only on which side of the number the result lay.

MEK3, sequence (P46734 whole entry, canonical isoform): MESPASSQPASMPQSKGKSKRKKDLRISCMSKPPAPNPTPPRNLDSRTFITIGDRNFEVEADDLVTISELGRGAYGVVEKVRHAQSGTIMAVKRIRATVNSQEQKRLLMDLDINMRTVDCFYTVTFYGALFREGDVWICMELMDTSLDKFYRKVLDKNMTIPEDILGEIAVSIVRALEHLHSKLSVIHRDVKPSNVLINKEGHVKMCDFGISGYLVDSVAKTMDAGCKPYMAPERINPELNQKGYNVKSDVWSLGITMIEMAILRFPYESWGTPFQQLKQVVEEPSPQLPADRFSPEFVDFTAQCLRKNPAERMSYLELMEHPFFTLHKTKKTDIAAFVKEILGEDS
MEK1, sequence (Q02750 whole entry, canonical isoform): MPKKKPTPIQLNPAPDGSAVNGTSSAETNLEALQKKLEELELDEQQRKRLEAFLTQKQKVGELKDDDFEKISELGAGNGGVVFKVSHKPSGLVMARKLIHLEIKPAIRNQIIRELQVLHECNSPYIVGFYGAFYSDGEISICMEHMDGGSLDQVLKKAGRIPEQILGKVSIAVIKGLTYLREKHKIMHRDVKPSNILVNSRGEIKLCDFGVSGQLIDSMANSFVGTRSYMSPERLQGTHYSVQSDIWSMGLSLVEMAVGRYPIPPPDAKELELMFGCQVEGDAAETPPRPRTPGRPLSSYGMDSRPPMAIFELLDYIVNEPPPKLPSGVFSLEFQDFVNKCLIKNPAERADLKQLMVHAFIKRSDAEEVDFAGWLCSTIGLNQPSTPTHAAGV
human MEK4, sequence (P45985 whole entry): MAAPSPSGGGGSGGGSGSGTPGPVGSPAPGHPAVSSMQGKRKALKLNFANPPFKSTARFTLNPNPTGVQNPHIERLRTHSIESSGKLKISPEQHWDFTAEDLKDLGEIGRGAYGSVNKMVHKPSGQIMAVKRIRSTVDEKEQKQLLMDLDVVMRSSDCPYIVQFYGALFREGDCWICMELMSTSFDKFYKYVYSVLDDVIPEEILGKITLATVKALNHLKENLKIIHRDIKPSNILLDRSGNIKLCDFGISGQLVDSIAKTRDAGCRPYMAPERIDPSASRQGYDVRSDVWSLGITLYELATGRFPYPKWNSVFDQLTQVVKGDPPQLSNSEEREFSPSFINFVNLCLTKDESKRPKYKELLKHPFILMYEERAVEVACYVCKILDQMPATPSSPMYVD
MEK6, sequence (P52564 whole entry, canonical isoform): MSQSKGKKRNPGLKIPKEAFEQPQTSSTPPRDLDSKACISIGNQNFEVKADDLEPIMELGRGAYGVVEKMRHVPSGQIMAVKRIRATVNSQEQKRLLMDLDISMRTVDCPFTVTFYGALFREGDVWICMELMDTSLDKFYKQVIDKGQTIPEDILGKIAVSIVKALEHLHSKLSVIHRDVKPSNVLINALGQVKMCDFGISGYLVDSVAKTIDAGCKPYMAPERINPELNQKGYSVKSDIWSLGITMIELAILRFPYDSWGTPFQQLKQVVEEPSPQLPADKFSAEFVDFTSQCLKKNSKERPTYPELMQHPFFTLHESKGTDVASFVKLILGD
MEK2, sequence (P36507 whole entry, canonical isoform): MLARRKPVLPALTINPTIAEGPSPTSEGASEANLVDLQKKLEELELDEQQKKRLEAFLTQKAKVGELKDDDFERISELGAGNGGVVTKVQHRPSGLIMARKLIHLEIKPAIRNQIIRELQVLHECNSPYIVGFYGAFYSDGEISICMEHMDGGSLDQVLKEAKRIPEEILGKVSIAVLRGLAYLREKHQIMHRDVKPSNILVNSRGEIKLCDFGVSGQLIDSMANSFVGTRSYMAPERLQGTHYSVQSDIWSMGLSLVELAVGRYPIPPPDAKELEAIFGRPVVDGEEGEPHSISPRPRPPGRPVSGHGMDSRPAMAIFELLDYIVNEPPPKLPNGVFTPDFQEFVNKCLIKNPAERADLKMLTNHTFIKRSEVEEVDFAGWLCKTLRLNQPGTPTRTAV
MEK5, sequence (Q13163 whole entry, canonical isoform): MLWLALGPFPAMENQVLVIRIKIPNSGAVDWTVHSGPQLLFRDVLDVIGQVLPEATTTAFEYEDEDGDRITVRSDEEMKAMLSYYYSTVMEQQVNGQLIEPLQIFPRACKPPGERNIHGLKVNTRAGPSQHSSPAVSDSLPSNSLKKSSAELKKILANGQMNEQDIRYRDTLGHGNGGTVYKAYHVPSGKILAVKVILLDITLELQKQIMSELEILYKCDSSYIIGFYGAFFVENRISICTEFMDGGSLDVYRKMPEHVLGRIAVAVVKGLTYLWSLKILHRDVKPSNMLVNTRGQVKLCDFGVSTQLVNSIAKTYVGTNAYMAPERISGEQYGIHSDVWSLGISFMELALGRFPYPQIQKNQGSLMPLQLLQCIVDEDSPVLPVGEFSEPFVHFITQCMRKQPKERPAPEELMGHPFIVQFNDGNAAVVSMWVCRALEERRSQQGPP

With `Cc1ccc2[nH]nc(-c3ccc(C(N)=O)cc3)c2c1` [Compound 6r, 4-(5-methyl-2H-indazol-3-yl)benzamide], the IC50 (as a rule, the concentration that gives 50% inhibition) amounted to 3.9 µM in assay [1]; 6.1 µM in assay [2]; 4.1 µM in assay [3]; 19 µM in assay [4]; 2.1 µM in assay [5].

Consider `O=c1c(-c2ccc(O)cc2)coc2cc(O)cc(O)c12` [Geni, genistein, reference compound], for which the “Percent Difference, DMSO vs. Geni” value in assay [6] (PC3M cells, genistein 10 μM, wound gap 0 vs 20 hrs) is 33.45%.

For the compound `Cc1ccc2[nH]nc(-c3ccc(O)cc3)c2c1` [Compound 6q, 4-(5-methyl-2H-indazol-3-yl)phenol], the half-inhibitory concentration (IC50) turned out to be 7.7 µM in assay [1], 7.2 µM in assay [2], 25 µM in assay [4] and 2.2 µM in assay [5].

As for `Cc1cccc2[nH]nc(-c3ccc(O)cc3)c12` [Compound 6b], the IC50 in assay [1] was 11 µM; in assay [2] it was 15 µM; in assay [3], above 27 µM; in assay [4], above 27 µM; in assay [5], 21 µM.

Take `Oc1ccc(-c2n[nH]c3ccc(C(F)(F)F)cc23)cc1` [Compound 6j, 4-[5-(trifluoromethyl)-2H-indazol-3-yl]phenol]: the IC50 in assay [1] was 4.6 µM; in assay [2], 5.3 µM; in assay [4], above 27 µM; in assay [5], 1.6 µM.

As for `Clc1cccc2[nH]nc(-c3cccnc3)c12` [Compound 6e, 4-chloro-3-(pyridin-3-yl)-2H-indazole], the concentration for half-maximal inhibition (IC50) in assay [7] is above 22 µM.

In the case of `COC(=O)c1ccc(-c2n[nH]c3cc(C(F)(F)F)ccc23)cc1` [Compound 6y, methyl 4-[6-(trifluoromethyl)-2H-indazol-3-yl]benzoate], the “MEK4 inhibition” value in assay [7] (SAR discussion of Table 1) is “completely inactive”. Further, in assay [7], the IC50 is above 20 µM.

In the case of `Cc1ccc2[nH]nc(-c3ccc4c(c3)OCO4)c2c1` [Compound 6p, 3-(2H-1,3-benzodioxol-5-yl)-5-methyl-2H-indazole], the half-inhibitory concentration (IC50) in assay [1] worked out at 6.6 µM; in assay [2] it was 9.1 µM; in assay [3], 8.5 µM; in assay [4] it was 16 µM; in assay [5] it was 3.2 µM.

Turning to `O=C(O)c1ccc(-c2n[nH]c3cc(C(F)(F)F)ccc23)cc1` [Compound 6z, 4-[6-(trifluoromethyl)-2H-indazol-3-yl]benzoic Acid], the IC50 in assay [1] is 17 µM; in assay [2] it was above 27 µM; in assay [3], above 27 µM; in assay [4], 0.35 µM; in assay [5], 8.8 µM.

As to `CC(C)(O)c1cccc(-c2n[nH]c3cccc(Cl)c23)c1` [Compound 6g, 2-[3-(4-chloro-2H-indazol-3-yl)phenyl]propan-2-ol], in assay [7], the IC50 was above 22 µM.

On to `CC(C)(C)OC(=O)n1nc(-c2ccc(O)cc2)c2cc(C(F)(F)F)ccc21` [Compound 6k, tert-butyl 3-(4-hydroxyphenyl)-5-(trifluoromethyl)-1H-indazole-1-carboxylate], for which the half-inhibitory concentration (IC50) in assay [7] was above 20 µM.

`Cc1ccc2[nH]nc(-c3ccc(C(=O)O)cc3)c2c1` [Compound 6s, 4-(5-methyl-2H-indazol-3-yl)benzoic Acid]: the IC50 in assay [1] was 17 µM; in assay [2], above 27 µM; in assay [3], 12 µM; in assay [4], above 27 µM; in assay [5], 8.7 µM.

Take `Fc1ccc2c(-c3ccc4c(c3)OCO4)n[nH]c2c1` [Compound 6ee, 3-(2H-1,3-benzodioxol-5-yl)-6-fluoro-2H-indazole]: the IC50 is 6.6 µM in assay [1]; 9.3 µM in assay [2]; 21 µM in assay [3]; above 27 µM in assay [4]; 5.8 µM in assay [5]. Moreover, the figures for the “efficacy in wound scratch assay” value in assay [6] (10 μM) and in assay [6] (25 μM) were “modest efficacy” and “performs better”, respectively. Also, the “Percent Difference, DMSO vs. 10 uM inhibitor” value in assay [6] (PC3M cells, 10 μM, wound gap 0 vs 20 hrs) is 14.93%. In assay [6] (PC3M cells, 25 μM, wound gap 0 vs 20 hrs), the “Percent Difference, DMSO vs. 25 uM inhibitor” value is 32.15%.

With `Cc1ccc2[nH]nc(-c3ccc(F)c(CO)c3)c2c1` [Compound 6o], the IC50 in assay [1] is 4 µM; in assay [2], 5.4 µM; in assay [3], 6 µM; in assay [4] it was above 27 µM; in assay [5] it was 3.4 µM.

For the compound `O=C(O)c1ccc(-c2n[nH]c3ccc(C(F)(F)F)cc23)cc1` [Compound 6n, 4-[5-(trifluoromethyl)-2H-indazol-3-yl]benzoic Acid], the IC50 in assay [1] is 10 µM; in assay [2], above 27 µM; in assay [3], 2.9 µM; in assay [4] it was above 27 µM; in assay [5], 6 µM.
